Data published in US9464308B2, “Method for transcriptional amplification of nucleic acids combining steps of different temperatures” (priority 2011, dated 2016).
Like-named read-outs stand apart in the source and are kept apart here.

Legend:
RNAse H = test: Residual RNAse H activity after preincubation at various temperatures, with or without 0.4 M trehalose; format: biochemical; details: 25 minutes of preincubation at various temperatures
Experimental: FIG. 3B describes the residual activity of RNAse H after 25 minutes of preincubation at various temperatures, with or without 0.4 M trehalose.
(§1) Description of the method for measuring the T7 RNA polymerase, RNAse H and AMV-RT activities for example 5: • 1. The T7 RNA polymerase, RNAse H and AMV-RT enzymes are used at volumetric activities of 109 kU/ml, 1 kU/ml and 25 kU/ml respectively. • 2. The T7 RNA polymerase, RNAse H and AMV-RT enzymes are diluted in the solution W1 of example 3 according to the ratios 1/43, 2/191 and 2/27 respectively, in order to mimic the physicochemical environment of the NASBA reaction. • 3. […] The residual activity of each of the T7 RNA polymerase, RNAse H or AMV-RT activities is then measured by adding 5 μl of enzymatic solution to 20 μl of solution S containing the reagents corresponding to each of the activities measured. […]
(§2) • 6. The residual activity of each mutant is expressed as percentage of the fraction of enzyme having not been preincubated and corresponding to 100% activity according to the following calculation: • ρN=slope obtained between 5 and 10 min for the enzyme not preincubated, • ρT=slope obtained between 5 and 10 min for the enzyme preincubated at various temperatures, with or without the presence of the polyol to be studied, and • percentage relative activity=% (ρT/ρN).

T7 RNA polymerase [1] = molecular target: T1, T7 RNA polymerase (Escherichia phage T7, UniProt P00573); test: Maximum preincubation temperature preserving T7 RNA polymerase activity (3 min preincubation); format: biochemical; details: 1.4 M sorbitol
T1 construct: purchased bioMérieux, Marcy l'Etoile, France
Experimental: FIG. 2 describes the residual activity (%) of T7 RNA polymerase after 3 minutes of preincubation at various temperatures and in the presence of various thermostabilizing compounds.
In this example, the maximum temperature that the T7 RNA polymerase could withstand for a preincubation of 3 minutes in the presence of thermostabilizing compounds is determined.
This step can be likened to a target predenaturation or preincubation phase. The protocol used in this example is similar to that of example 2, with the exception of the fact that the temperatures are variable and that the preincubation time was fixed at 3 minutes.

T7 RNA polymerase [2] = molecular target: T1, T7 RNA polymerase; test: Residual T7 RNA polymerase activity after preincubation at various temperatures, with or without 0.4 M trehalose; format: biochemical; details: 15 minutes of preincubation at various temperatures
Experimental: FIG. 3A describes the residual activity of T7 RNA polymerase after 15 minutes of preincubation at various temperatures, with or without 0.4 M trehalose.
as §1, §2

AMV-RT = test: Residual AMV-RT activity after preincubation at various temperatures, with or without 0.4 M trehalose; format: biochemical; details: 25 minutes of preincubation at various temperatures
Experimental: FIG. 3C describes the residual activity of AMV-RT after 25 minutes of preincubation at various temperatures, with or without 0.4 M trehalose.
as §1, §2

T7 RNA polymerase [3] = molecular target: T1, T7 RNA polymerase; test: Thermal denaturation of T7 RNA polymerase (T7 Tm) by UV spectrophotometry; format: physicochemical; details: for ΔTm: T7 RNA polymerase at 0.05 mg/ml, PBS 150 mM pH 7.5, versus control without additive (T7 Tm 48.5° C.), Sorbitol 1M, Sucrose 1M, Lactose 0.35M, Raffmose 0.085M, D-Turanose 0.15M; for denaturation temperature of the enzyme (in words): heating T7 RNA polymerase in the presence of the additive
Experimental: T7 RNA polymerase was chosen as model enzyme since it is the most sensitive to thermal denaturation; the T7 Tm without additive is 48.5° C.
A UV spectrophotometry technique is used to measure the T7 Tm values. The change in the absorbance of the protein at λ=280 nm as a function of temperature is measured. When the enzyme is heated, the solution becomes cloudy, and aggregates form which correspond to the denatured form. The Tm corresponds to the temperature for which there is 50% of native form and 50% of denatured form (first derivative of the curve absorbance=f(temperature)).
In a polypropylene flask, 4 ml of 300 mM PBS phosphate buffer (Aldrich P-4417, St Quentin Fallavier, France) are mixed with 12μl of T7 RNA polymerase enzyme (bioMérieux, Marcy l'Etoile, France) at 17 mg/ml, i.e. a final protein concentration of 0.05 mg/ml. 500 μl of T7 RNA polymerase solution at 0.05 mg/ml and 500 μl of a concentrated solution of additives (Aldrich, St Quentin Fallavier, France) or of 300 mM PBS for the control are then placed in a quartz cuvette for UV spectrophotometry. After homogenization, the change in absorbance at λ=280 nm is measured as a function of temperature, between 30 and 65° C. at 1° C./min, in order to determine the T7 Tm as previously described (Cary UV spectrophotometer, Varian, Les Ulis, France).

T7 RNA polymerase [4] = molecular target: T1, T7 RNA polymerase; test: Thermostability (T1/2) at 46° C. of T7 RNA polymerase activity; format: biochemical; details: environment specific to NASBA, sorbitol 1.48 M
Experimental: In this example, the values of T1/2 of T7 RNA polymerase are determined in the presence or absence of polyols. A description of the measurement method is given below, as are the various reagents used.
Mix buffers B, C and D according to the following proportions with the following Nuclisens™ HIV-1 2.0 reagents (ref.: 285033, bioMérieux, Marcy l'Etoile, France) (for eight reactions): • 36.08 μl buffer A • 6.32 μl buffer B • 25.36 μl buffer C • 173.6 μl buffer D • eight “Nuclisens™ HIV-1 2.0 accusphere reagent” • 960 μl of “Nuclisens™ HIV-1 2.0 diluent reagent”. […]
• 1. The enzymes to be evaluated are diluted in such a way as to have a volumetric activity of 109 kU/ml. • 2. A volume of 20 μl of the enzyme to be evaluated is diluted in 840 μl of solution W1. • 3. 114 μl of the compound to be evaluated are then added to 193.5 μl of enzymatic mix described in point 2 above. • 4. […] 20 μl of solution S are added to 5 n1 of this preincubated mixture in order to measure the rate of increase in fluorescence between 5 and 10 minutes, associated with the residual activity of the enzyme. • 6. […]

HIV-1 type B transcript [5] = test: NASBA HIV-1 2.0 amplification test at 46° C., functional screening of thermostabilizing compounds; format: biochemical; details: 7.5 cps/reaction HIV-1B transcript, lactose 0.21 M, sorbitol 1.2 M, sucrose 0.6 M
Experimental: The FIG. 1 represent the functional screening of thermostabilizing compounds during NASBA amplifications at 46° C. in the presence of 7.5 cps/reaction of HIV-1B transcript (seven replicas per screening), with in:
A set of compounds with thermostabilizing properties or assumed to have such properties was evaluated in a NASBA HIV-1 2.0 amplification test on a Nuclisens EasyQ™ amplification platform (bioMérieux, Marcy l'Etoile, France) according to the supplier's recommendations. 5 cps to 30 cps of an HIV-1 type B transcript were used as target in each reaction in the presence or absence of the compound to be evaluated.
The obtaining of an amplification in the presence of the compound at a temperature of 46° C. makes it possible to validate the compound as compatible and thermostabilizing for the NASBA reaction.

HIV-1 type B transcript [6] = test: Sensitivity of NASBA detection at 46° C. without target denaturation phase; format: biochemical; details: HIV-1 type B transcript at 5 cps/test, no target denaturation phase, N=24
Source text: FIG. 4 gives the measurement of the sensitivity (%) obtained in the presence of various thermostabilizing compounds during an HIV-1 type B NASBA amplification at 5 cps/test and without target denaturation phase (N=24).
The objective of this is to simplify the method by virtue of the simultaneous addition of the targets to the enzyme and amplification reagent mixes.
A Nuclisens™ HIV-1 2.0 amplification kit (ref.: 285033, bioMérieux, Marcy l'Etoile, France) was used to carry out the amplification experiments in the presence of trehalose, sucrose or sorbitol at the detection limit with an HIV-1 type B transcript at 5 cps/test. Each amplification is replicated 24 times in order to estimate the sensitivity of the test in the presence of thermostabilizing compounds at 46° C.
The sensitivity is expressed as percentage of positive signals determined by the EasyQ™ analysis system, relative to the total number of replicates.

[7] = 3 minutes at 48° C., 0.7 M sucrose, 0.4 M trehalose

T1 sequence (P00573 whole entry): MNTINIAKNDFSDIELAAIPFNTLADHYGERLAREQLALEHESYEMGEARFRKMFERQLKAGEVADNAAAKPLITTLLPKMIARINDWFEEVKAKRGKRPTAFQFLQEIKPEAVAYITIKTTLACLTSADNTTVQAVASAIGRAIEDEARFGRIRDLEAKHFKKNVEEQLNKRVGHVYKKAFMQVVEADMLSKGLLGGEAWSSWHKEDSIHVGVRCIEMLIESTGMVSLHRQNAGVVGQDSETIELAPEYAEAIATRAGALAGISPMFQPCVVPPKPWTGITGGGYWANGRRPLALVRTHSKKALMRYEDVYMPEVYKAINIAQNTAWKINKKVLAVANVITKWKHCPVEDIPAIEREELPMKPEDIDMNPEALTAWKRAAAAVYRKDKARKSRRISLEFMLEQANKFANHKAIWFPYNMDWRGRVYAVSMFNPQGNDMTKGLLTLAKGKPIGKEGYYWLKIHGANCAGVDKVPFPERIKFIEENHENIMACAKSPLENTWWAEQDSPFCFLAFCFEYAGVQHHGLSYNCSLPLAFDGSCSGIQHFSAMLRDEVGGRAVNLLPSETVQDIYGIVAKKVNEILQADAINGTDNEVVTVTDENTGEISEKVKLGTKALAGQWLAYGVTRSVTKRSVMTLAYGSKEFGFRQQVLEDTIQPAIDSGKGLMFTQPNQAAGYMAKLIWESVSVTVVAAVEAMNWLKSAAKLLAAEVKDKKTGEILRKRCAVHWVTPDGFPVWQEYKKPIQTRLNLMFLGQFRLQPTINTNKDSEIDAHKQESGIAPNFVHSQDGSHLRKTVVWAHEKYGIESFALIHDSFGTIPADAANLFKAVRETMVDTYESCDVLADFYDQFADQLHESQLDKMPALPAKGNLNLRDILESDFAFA

Structure (SMILES) | T7 RNA polymerase activity preserved (T7 RNA polymerase [1]; [7]) | thermostabilizing effect on the T7 RNA polymerase activity (in words) (T7 RNA polymerase [4]) | NASBA amplification at 46° C. (positive signals out of seven replicas) (HIV-1 type B transcript [5]) | ΔTm (T7 RNA polymerase [3]; read-out: ΔTm) | denaturation temperature of the enzyme (in words) (T7 RNA polymerase [3]) | further results
OC[C@H]1O[C@H](O[C@H]2O[C@H](CO)[C@@H](O)[C@H](O)[C@H]2O)[C@H](O)[C@@H](O)[C@@H]1O [Trehalose, trehalose] | 100% |  |  |  |  | thermostabilizing effect on RNAse H activity (in words) (RNAse H): thermostabilizing effect; thermostability of T7 RNA polymerase (in words) (T7 RNA polymerase [2]): makes it possible to render it more thermostable; thermostabilizing effect on AMV-RT activity (in words) (AMV-RT): thermostabilizing effect
O=C(CO)[C@@H](O[C@H]1O[C@H](CO)[C@@H](O)[C@H](O)[C@H]1O)[C@H](O)[C@H](O)CO [D-Turanose] |  |  |  |  |  | ΔTm (T7 RNA polymerase [3]): −4.4 °C
OC[C@H]1O[C@@H](O[C@H]2[C@H](O)[C@@H](O)C(O)O[C@@H]2CO)[C@H](O)[C@@H](O)[C@H]1O (stereo partly drawn) [Lactose, lactose] |  | weak thermostabilizing power | at least four positive signals out of seven replicas | 5.5 °C | very significantly increase the denaturation temperature of the enzyme | 
OC[C@H]1O[C@@](CO)(O[C@H]2O[C@H](CO)[C@@H](O)[C@H](O)[C@H]2O)[C@@H](O)[C@@H]1O [Sucrose, sucrose] | 100% |  | at least four positive signals out of seven replicas | 5.8 °C | very significantly increase the denaturation temperature of the enzyme | 
OC[C@H]1O[C@H](OC[C@H]2O[C@H](O[C@]3(CO)O[C@H](CO)[C@@H](O)[C@@H]3O)[C@H](O)[C@@H](O)[C@@H]2O)[C@H](O)[C@@H](O)[C@H]1O [Raffmose, raffinose] |  |  |  | 0.5 °C |  | 
OC[C@@H](O)[C@@H](O)[C@H](O)[C@@H](O)CO [Sorbitol, sorbitol] | 100% | greatest thermostabilizing effect | at least four positive signals out of seven replicas | 0.9 °C | very significantly increase the denaturation temperature of the enzyme | T7 RNA polymerase activity preserved (T7 RNA polymerase [1]; 3 minutes at 49° C.): 100%; sensitivity (percentage of positive signals relative to total replicates) (HIV-1 type B transcript [6]): 100%
